Results as given in PubChem BioAssay (NCI).
“And” between values parts separate entries of the source, which are not always exact repeats. Identical values can stand only once.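 How tested: cells in 96-well plates exposed to compound for 48 hours at five concentrations. GI50 marks 50% less growth. TGI: total growth inhibition.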

Experiments:
Experiment in all cases: NCI-60 cell line screen, 48 h
KM12 colon = tested on: KM12 colon
OVCAR-3 ovarian = tested on: OVCAR-3 ovarian
SW-620 colon = tested on: SW-620 colon
UACC-257 melanoma = tested on: UACC-257 melanoma
HOP-92 NSCLC = tested on: HOP-92 NSCLC
RPMI-8226 leukemia = tested on: RPMI-8226 leukemia
HS 578T breast = tested on: HS 578T breast
MDA-MB-435 = tested on: MDA-MB-435
NCI/ADR-RES ovarian = tested on: NCI/ADR-RES ovarian
MCF7 breast = tested on: MCF7 breast

Structure (SMILES)	TGI (KM12 colon)	TGI (OVCAR-3 ovarian)	TGI (SW-620 colon)	TGI (UACC-257 melanoma)	TGI (HOP-92 NSCLC) [µM]	TGI (RPMI-8226 leukemia)	GI50 (HS 578T breast)	TGI (HS 578T breast)	GI50 (KM12 colon)	GI50 (MDA-MB-435)	TGI (MDA-MB-435)	GI50 (NCI/ADR-RES ovarian)	TGI (NCI/ADR-RES ovarian)	GI50 (OVCAR-3 ovarian)	GI50 (RPMI-8226 leukemia)	GI50 (SW-620 colon)	GI50 (UACC-257 melanoma)	GI50 (HOP-92 NSCLC) [µM]	GI50 (MCF7 breast)	TGI (MCF7 breast)
Cc1c(C(Cc2ccccc2N(C)C(=O)/C=C\C(=O)O)c2c[nH]c3ccccc23)c2ccccc2n1C (centres undefined)	29.1 µM	27.7 µM	34.5 µM	31.5 µM	–	–	–	–	–	–	–	–	–	–	–	–	–	–	–	–
NC1=C(O)c2cccc3cccc(c23)C1=O	> 100 µM	> 100 µM	> 100 µM	> 100 µM	> 100	> 100 µM	–	–	–	–	–	–	–	–	–	–	–	–	–	–
O=C(O)/C=C/c1ccc(O)c(O)c1	> 100 µM	> 100 µM	> 76.3 µM	> 100 µM	> 100	> 100 µM	–	–	–	–	–	–	–	–	–	–	–	–	–	–
Cc1cc(N(CCC#N)CCC#N)ccc1/C=C(\NC(=O)/C=C/c1ccccc1)C(=O)N=[N+]=[N-]	–	> 100 µM	> 100 µM	> 100 µM	–	> 100 µM	–	–	–	–	–	–	–	–	–	–	–	–	–	–
COc1cccc2c1nc(C(F)F)n2-c1nc(-c2ccc(NS(=O)(=O)CCN(C)C)cc2)nc(N2CCOCC2)n1	12.8 µM	3.13 µM	6.78 µM	1.72 µM	–	2.41 µM	0.0664 µM	0.5 µM	0.275 µM	0.132 µM	7.2 µM	0.434 µM	33.6 µM	0.105 µM	0.272 µM	0.341 µM	0.116 µM	–	–	–
CC(=O)N1C/C(=C\c2ccccc2)C(=O)/C(=C/c2ccccc2)C1	12.1 µM	16.4 µM	8.37 µM	18.6 µM	–	4.79 µM	–	–	–	–	–	–	–	–	–	–	–	–	–	–
Cc1c(Cl)cccc1C(=O)Nc1nc2c(s1)CN(C(=O)Nc1cccc(C(F)(F)F)c1)CC2	> 21.7 µM	0.539 µM	> 50 µM	> 50 µM	15.6	> 39.2 µM	0.163 µM	> 50 µM	0.174 µM	–	–	0.14 µM	1.01 µM	0.14 µM	0.202 µM	0.175 µM	2.21 µM	0.18	0.145 µM	> 50 µM
O=C1C2C3CC4C5C3C1C5C1(SCCS1)C42 (centres undefined)	> 100 µM	–	> 100 µM	> 100 µM	–	> 100 µM	–	–	–	–	–	–	–	–	–	–	–	–	–	–
C/C(=N/NC(=O)c1ccccc1S(N)(=O)=O)C(CN1CCCCC1)C(C1=C(O)C2C=CC=CC2OC1=O)c1ccccc1 (centres undefined)	> 100 µM	> 100 µM	> 100 µM	> 100 µM	77.1	79 µM	–	–	–	–	–	–	–	–	–	–	–	–	–	–
Cn1cc(C2NC(=O)c3ccccc3N2)c2ccccc21 (centres undefined)	26.9 µM	2.03 µM	> 100 µM	> 100 µM	> 100	–	–	–	–	–	> 100 µM	–	2.49 µM	–	–	–	–	–	–	5.1 µM
CC(C)(CN1CCCCC1)C(=O)/C=C/c1ccccc1	28.9 µM	21.6 µM	27.8 µM	46.8 µM	–	38.3 µM	–	–	–	–	–	–	–	–	–	–	–	–	–	–
COc1nc(NC2OC(COC(C)=O)C(OC(C)=O)C(OC(C)=O)C2OC(C)=O)c(N=CC=Nc2c(NC3OC(COC(C)=O)C(OC(C)=O)C(OC(C)=O)C3OC(C)=O)nc(OC)[nH]c2=O)c(=O)[nH]1 (centres undefined)	> 100 µM	> 100 µM	> 100 µM	> 100 µM	> 100	> 100 µM	–	–	–	–	–	–	–	–	–	–	–	–	–	–
COc1cc(/C=C2\CC3C4CC=C5CC(OC(C)=O)CC[C@]5(C)C4CC[C@]3(C)C2=O)ccc1OCCN1CCCC1 (some centres undefined)	15 µM	10.5 µM	22.9 µM	4.2 µM	28.6	–	20 µM	42.7 µM	3.89 µM	3.38 µM	13.1 µM	12 µM	24.9 µM	3 µM	–	4.89 µM	2.09 µM	13.5	2.69 µM	> 22.4 µM
N#CC(C(=O)CCCC(=O)Nc1ccccc1[N+](=O)[O-])c1c(Cl)cccc1Cl (centres undefined)	> 100 µM	> 100 µM	> 100 µM	> 100 µM	> 100	> 100 µM	–	–	–	–	–	–	–	–	–	–	–	–	–	–
O=C(/C=C/c1ccccc1)NC1C=Nc2ccc([N+](=O)[O-])cc2NC1=O (centres undefined)	86.7 µM	> 100 µM	> 100 µM	> 100 µM	> 100	–	–	–	–	–	–	–	–	–	–	–	–	–	–	–
O=C(CCc1n[nH]c(=S)o1)Nc1cc(Cl)ccc1Cl	> 100 µM	> 100 µM	32.1 µM	> 100 µM	> 100	46.3 µM	–	–	–	–	–	–	–	–	–	–	–	–	–	–
COc1ccc(-c2csc3c2-n2cccc2C3=O)cc1	–	0.264 µM	> 100 µM	–	> 100	–	0.211 µM and 0.0224 µM	0.095 µM	0.0133 µM	–	–	–	> 100 µM	–	0.0259 µM	0.0056 µM	–	0.0919	0.0945 µM	> 41.6 µM
COC(=O)N[C@H]1CCc2cc(OC)c(OC)c(OC)c2-c2ccc(SC)c(=O)cc21	> 100 µM	–	> 100 µM	> 100 µM	> 64.8	> 64.5 µM	< 0.01 µM	> 100 µM	< 0.01 µM	–	–	0.0247 µM	> 100 µM	< 0.01 µM	< 0.01 µM	< 0.01 µM	50.7 µM	0.0631	< 0.01 µM	> 100 µM
O=C(CCCc1ccc(N(CCCl)CCCl)cc1)NCc1ccccc1	52.1 µM	38.1 µM	73.4 µM	55.5 µM	–	27.4 µM	15.6 µM	> 100 µM	12.3 µM	3.69 µM	18 µM	6.88 µM	60.7 µM	13.7 µM	4.57 µM	6.4 µM	12.1 µM	–	3.08 µM	> 100 µM
COC(=O)C(=O)C(C#N)c1nc2ccccc2s1 (centres undefined)	–	> 100 µM	> 100 µM	> 100 µM	> 100	> 100 µM	–	–	–	–	–	–	–	–	–	–	–	–	–	–
O=C(NCc1cn(Cc2cccc(Oc3ccccc3)c2)nn1)c1cccnc1Nc1ccc(F)cc1	> 100 µM	> 100 µM	> 100 µM	> 100 µM	43.5	> 100 µM	30.9 µM	> 100 µM	5.61 µM	–	–	14 µM	> 100 µM	17.7 µM	> 100 µM	6.58 µM	6.87 µM	10.7	–	–
CC(C)(C)CC(C)(C)c1ccc(OCCO)cc1	18.6 µg/mL	13.4 µg/mL	18.6 µg/mL	16.9 µg/mL	–	19.5 µg/mL	4.26 µg/mL	19.6 µg/mL	7.81 µg/mL	6.26 µg/mL	18.6 µg/mL	2.61 µg/mL	18.1 µg/mL	2.63 µg/mL	1.9 µg/mL	7.73 µg/mL	2.39 µg/mL	–	4.01 µg/mL	17 µg/mL
